Numbers after ± are expanded uncertainties.
Experiment: xn = mol fraction of the nth substance listed
Conditions: 101 kPa, Liquid; for speed of sound: Sing-around technique in a fixed-path interferometer; for mass density: Vibrating tube method; for viscosity: Capillary tube (Ostwald / Ubbelohde) method

CCCCOCCO [2-butoxyethan-1-ol] + CCCCO
Conditions | mass density [kg/m3] | speed of sound [m/s] | viscosity [mPa·s]
293.15 K, x1 = 0.0516 | 816.39 ± 0.12 | 1262.2 ± 0.71 | –
293.15 K, x1 = 0.1011 | 822.44 ± 0.11 | 1266.6 ± 0.71 | –
293.15 K, x1 = 0.1535 | 828.64 ± 0.11 | 1271.1 ± 0.71 | –
293.15 K, x1 = 0.2027 | 834.27 ± 0.11 | 1275.2 ± 0.71 | –
293.15 K, x1 = 0.2537 | 839.84 ± 0.11 | 1279.2 ± 0.71 | –
293.15 K, x1 = 0.3027 | 844.99 ± 0.11 | 1282.9 ± 0.71 | –
293.15 K, x1 = 0.4 | 854.57 ± 0.11 | 1289.8 ± 0.71 | –
293.15 K, x1 = 0.5055 | 864.12 ± 0.1 | 1296.7 ± 0.71 | –
293.15 K, x1 = 0.6054 | 872.48 ± 0.097 | 1302.5 ± 0.71 | –
293.15 K, x1 = 0.7025 | 880.07 ± 0.091 | 1307.9 ± 0.71 | –
293.15 K, x1 = 0.8042 | 887.49 ± 0.086 | 1313.2 ± 0.71 | –
293.15 K, x1 = 0.8552 | 891.03 ± 0.084 | 1315.9 ± 0.71 | –
293.15 K, x1 = 0.906 | 894.44 ± 0.082 | 1318.5 ± 0.71 | –
293.15 K, x1 = 0.9526 | 897.48 ± 0.081 | 1320.9 ± 0.71 | –
298.15 K, x1 = 0.0516 | 812.543 ± 0.12 | 1245.2 ± 0.71 | 2.586 ± 0.12
298.15 K, x1 = 0.1011 | 818.58 ± 0.12 | 1249.7 ± 0.71 | 2.553 ± 0.12
298.15 K, x1 = 0.1535 | 824.722 ± 0.11 | 1254.2 ± 0.71 | 2.536 ± 0.12
298.15 K, x1 = 0.2027 | 830.281 ± 0.11 | 1258.3 ± 0.71 | 2.524 ± 0.12
298.15 K, x1 = 0.2537 | 835.832 ± 0.11 | 1262.3 ± 0.71 | 2.516 ± 0.12
298.15 K, x1 = 0.3027 | 840.96 ± 0.11 | 1266.1 ± 0.71 | –
298.15 K, x1 = 0.3028 | – | – | 2.516 ± 0.12
298.15 K, x1 = 0.4 | 850.503 ± 0.11 | 1272.9 ± 0.7 | 2.527 ± 0.12
298.15 K, x1 = 0.5055 | 860.043 ± 0.11 | 1279.7 ± 0.7 | 2.555 ± 0.12
298.15 K, x1 = 0.6054 | 868.393 ± 0.099 | 1285.6 ± 0.7 | 2.592 ± 0.12
298.15 K, x1 = 0.7025 | 875.94 ± 0.093 | 1290.9 ± 0.7 | 2.645 ± 0.12
298.15 K, x1 = 0.8042 | 883.317 ± 0.088 | 1296.2 ± 0.7 | 2.703 ± 0.12
298.15 K, x1 = 0.8552 | 886.83 ± 0.086 | 1298.8 ± 0.7 | 2.743 ± 0.12
298.15 K, x1 = 0.906 | 890.248 ± 0.084 | 1301.4 ± 0.7 | 2.785 ± 0.12
298.15 K, x1 = 0.9526 | 893.29 ± 0.082 | 1303.8 ± 0.7 | 2.835 ± 0.12
303.15 K, x1 = 0.0516 | 808.67 ± 0.12 | 1228.5 ± 0.7 | 2.269 ± 0.12
303.15 K, x1 = 0.1011 | 814.69 ± 0.12 | 1233 ± 0.7 | 2.243 ± 0.12
303.15 K, x1 = 0.1535 | 820.82 ± 0.11 | 1237.5 ± 0.7 | 2.235 ± 0.12
303.15 K, x1 = 0.2027 | 826.35 ± 0.11 | 1241.5 ± 0.7 | 2.234 ± 0.12
303.15 K, x1 = 0.2537 | 831.87 ± 0.11 | 1245.5 ± 0.7 | 2.229 ± 0.12
303.15 K, x1 = 0.3027 | 836.98 ± 0.11 | 1249.1 ± 0.7 | –
303.15 K, x1 = 0.3028 | – | – | 2.235 ± 0.12
303.15 K, x1 = 0.4 | 846.49 ± 0.11 | 1255.9 ± 0.7 | 2.255 ± 0.12
303.15 K, x1 = 0.5055 | 855.99 ± 0.11 | 1262.6 ± 0.7 | 2.303 ± 0.12
303.15 K, x1 = 0.6054 | 864.3 ± 0.1 | 1268.6 ± 0.7 | 2.345 ± 0.12
303.15 K, x1 = 0.7025 | 871.83 ± 0.094 | 1274 ± 0.7 | 2.401 ± 0.12
303.15 K, x1 = 0.8042 | 879.17 ± 0.089 | 1279.4 ± 0.7 | 2.475 ± 0.12
303.15 K, x1 = 0.8552 | 882.67 ± 0.087 | 1282 ± 0.69 | 2.518 ± 0.12
303.15 K, x1 = 0.906 | 886.07 ± 0.085 | 1284.5 ± 0.69 | 2.564 ± 0.12
303.15 K, x1 = 0.9526 | 889.1 ± 0.084 | 1286.7 ± 0.69 | 2.607 ± 0.12
308.15 K, x1 = 0.0516 | 804.78 ± 0.12 | 1211.8 ± 0.69 | 2.029 ± 0.12
308.15 K, x1 = 0.1011 | 810.77 ± 0.12 | 1216.3 ± 0.69 | 2.008 ± 0.12
308.15 K, x1 = 0.1535 | 816.87 ± 0.12 | 1220.7 ± 0.69 | 1.994 ± 0.12
308.15 K, x1 = 0.2027 | 822.39 ± 0.11 | 1224.7 ± 0.69 | 1.98 ± 0.12
308.15 K, x1 = 0.2537 | 827.9 ± 0.11 | 1228.7 ± 0.69 | 1.966 ± 0.12
308.15 K, x1 = 0.3027 | 832.98 ± 0.11 | 1232.3 ± 0.69 | –
308.15 K, x1 = 0.3028 | – | – | 1.965 ± 0.12
308.15 K, x1 = 0.4 | 842.45 ± 0.11 | 1239.1 ± 0.69 | 1.968 ± 0.12
308.15 K, x1 = 0.5055 | 851.91 ± 0.11 | 1245.9 ± 0.69 | 1.981 ± 0.12
308.15 K, x1 = 0.6054 | 860.19 ± 0.1 | 1251.9 ± 0.69 | 2.006 ± 0.12
308.15 K, x1 = 0.7025 | 867.68 ± 0.096 | 1257.4 ± 0.69 | 2.045 ± 0.12
308.15 K, x1 = 0.8042 | 875.01 ± 0.091 | 1262.8 ± 0.69 | 2.106 ± 0.12
308.15 K, x1 = 0.8552 | 878.5 ± 0.089 | 1265.3 ± 0.69 | 2.138 ± 0.12
308.15 K, x1 = 0.906 | 881.88 ± 0.087 | 1267.8 ± 0.69 | 2.175 ± 0.12
308.15 K, x1 = 0.9526 | 884.89 ± 0.085 | 1270 ± 0.69 | 2.204 ± 0.12
313.15 K, x1 = 0.0516 | 800.853 ± 0.12 | 1195.2 ± 0.69 | –
313.15 K, x1 = 0.1011 | 806.824 ± 0.12 | 1199.7 ± 0.69 | –
313.15 K, x1 = 0.1535 | 812.87 ± 0.12 | 1204.1 ± 0.69 | –
313.15 K, x1 = 0.2027 | 818.34 ± 0.12 | 1208.2 ± 0.69 | –
313.15 K, x1 = 0.2537 | 823.81 ± 0.12 | 1212.2 ± 0.69 | –
313.15 K, x1 = 0.3027 | 828.88 ± 0.11 | 1215.9 ± 0.69 | –
313.15 K, x1 = 0.4 | 838.34 ± 0.11 | 1222.7 ± 0.69 | –
313.15 K, x1 = 0.5055 | 847.79 ± 0.11 | 1229.5 ± 0.69 | –
313.15 K, x1 = 0.6054 | 856.04 ± 0.1 | 1235.4 ± 0.69 | –
313.15 K, x1 = 0.7025 | 863.5 ± 0.097 | 1240.7 ± 0.68 | –
313.15 K, x1 = 0.8042 | 870.78 ± 0.092 | 1246 ± 0.68 | –
313.15 K, x1 = 0.8552 | 874.26 ± 0.09 | 1248.5 ± 0.68 | –
313.15 K, x1 = 0.906 | 877.63 ± 0.089 | 1251 ± 0.68 | –
313.15 K, x1 = 0.9526 | 880.64 ± 0.087 | 1253.2 ± 0.68 | –
